According to patent US20090137600A1, “Antiplatelet agent and process for producing the same” (priority 2004, published 2009):
Entries after “also recorded” stand apart in the source; their conditions may differ. Like-named read-outs stand apart in the source and are kept apart here.

Columns and labels:
[1] = system: guinea pig platelet rich plasma (PRP), aggregation induced by collagen; test: Suppression of collagen-induced platelet aggregation in guinea pig PRP; format: cell-based; conditions: Cavia porcellus
Method: (§1) After removing the PRP in the upper layer, the lower layer was further centrifuged at 1600 g for 10 minutes to separate the platelet poor plasma (PPP). 1 μL of the solution of Compound (I) or Comparative Examples 1 to 3 was added to 200 μL of PRP, and the mixture was allowed to stand at 37° C. for 2 minutes. Platelet aggregation was then induced by adding 2 μL of collagen to the mixture. Platelet aggregation rate was measured by using PAM-12C (SSR Engineering).

[2] = system: platelet aggregation induced by collagen; test: Inhibition of platelet aggregation induced by collagen (general statement); format: cell-based; conditions: species not given
[3] = system: platelet aggregation induced by collagen in PRP of guinea pig; test: Evaluation of oral absorption: ex vivo collagen-induced platelet aggregation in PRP of orally dosed guinea pig; conditions: for ex vivo inhibition of the platelet aggregation by the collagen: general statement, no dose given
[4] = Crystal stability on storage at 25° C. and 0%, 52% or 93% RH for 3 days; format: physicochemical; design: key to Crystal form (change): No: No change; Yes: Some change
Method: Compounds (1a), (1b), and (1c) as well as various salts of Compound (1a) produced in the Examples as described above were stored at 25° C. and at a relative humidity of 0%, 52%, or 93% for 3 days to evaluate change in weight and crystal form. Change in crystal form was measured in the case of fumarate at a low humidity, and in the case of Compound (1a) and its citrate at a high humidity. The salts of Compound (1a) were produced according to the method of Example 3.

[5] = system: human platelet rich plasma (PRP), aggregation induced by collagen; test: Suppression of collagen-induced platelet aggregation in human PRP; format: cell-based
Method: as §1

COX-1 = biological target: T1, COX-1 (Ovis aries, UniProt P05979); test: Inhibition of cyclooxygenase-1 (COX inhibitor screening assay kit, PGF2α ELISA); format: biochemical; conditions: for IC50 for COX-1 relative to IC50 of platelet aggregation suppression: ratio COX-1 IC50 / platelet aggregation IC50
T1 sequence (P05979 25-600): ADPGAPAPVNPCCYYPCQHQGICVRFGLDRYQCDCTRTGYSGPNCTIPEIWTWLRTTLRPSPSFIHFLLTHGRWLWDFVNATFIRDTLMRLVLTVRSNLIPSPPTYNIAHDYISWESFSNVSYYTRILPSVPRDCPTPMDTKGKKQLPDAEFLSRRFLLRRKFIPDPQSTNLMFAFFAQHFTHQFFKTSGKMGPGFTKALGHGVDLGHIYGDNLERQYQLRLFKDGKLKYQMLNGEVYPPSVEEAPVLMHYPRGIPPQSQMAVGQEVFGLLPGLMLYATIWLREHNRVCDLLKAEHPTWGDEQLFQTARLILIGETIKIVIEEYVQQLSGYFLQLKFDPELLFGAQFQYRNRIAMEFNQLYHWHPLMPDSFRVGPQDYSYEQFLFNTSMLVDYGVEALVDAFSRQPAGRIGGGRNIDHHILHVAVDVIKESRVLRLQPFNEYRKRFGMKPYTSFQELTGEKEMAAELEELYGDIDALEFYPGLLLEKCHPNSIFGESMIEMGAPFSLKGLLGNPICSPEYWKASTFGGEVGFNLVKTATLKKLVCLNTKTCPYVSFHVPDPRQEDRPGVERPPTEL
Method: (§2) Screening assay kit for COX inhibitor (Cayman Chemical Company, Catalog Nos. 560101 and 560121) were used to measure inhibitory activity of each compound for COX-1 and COX-2.
(§3) Reaction buffer, heme, arachidonic acid, SnCl2, EIA buffer, wash buffer, prostaglandin (PG) screening EIA standard, PG screening acetylcholinesterase (AchE) tracer ([…]), and PG screening EIA antiserum were prepared before the measurement.
(§4) The reaction solution containing various concentration of the compound of the Examples and COX-1 or COX-2 was allowed to stand at 37° C. for 10 minutes. 10 μL of arachidonic acid was added, and the reaction solution was allowed to stand at 37° C. for 2 minutes. After the reaction, 50 μL of 1N hydrochloric acid was added to cease the reaction, and 100 μL of SnCl2 solution was added, and the reaction solution was allowed to stand at room temperature for 5 minutes.
(§5) 50 μL of an antiserum (rabbit anti-PGF2α antibody) was added to each well of a 96 well plate which had been coated with mouse anti-rabbit IgG, and to each well was added 50 μL of a 2000-fold dilution of the PGF2α producing reaction solution, and then, 50 μL of the AchE tracer. The reaction mixture was allowed to stand at room temperature for 18 hours. The wells were washed 5 times with the wash buffer to remove the excessive AchE tracer, and 200 μL of Ellman reagent was added. After allowing to stand in a dark room for 60 minutes, the absorbance was measured at 405 nm.
(§6) Standard curve was depicted by using PG screening EIA standard, and amount of the PGF2α produced was determined from the absorbance.

COX-2 = biological target: T2, COX-2 (Homo sapiens, UniProt P35354); test: Inhibition of cyclooxygenase-2 (COX inhibitor screening assay kit, PGF2α ELISA); format: biochemical; conditions: for IC50 for COX-2 relative to IC50 of platelet aggregation suppression: ratio COX-2 IC50 / platelet aggregation IC50
T2 sequence (P35354 18-604): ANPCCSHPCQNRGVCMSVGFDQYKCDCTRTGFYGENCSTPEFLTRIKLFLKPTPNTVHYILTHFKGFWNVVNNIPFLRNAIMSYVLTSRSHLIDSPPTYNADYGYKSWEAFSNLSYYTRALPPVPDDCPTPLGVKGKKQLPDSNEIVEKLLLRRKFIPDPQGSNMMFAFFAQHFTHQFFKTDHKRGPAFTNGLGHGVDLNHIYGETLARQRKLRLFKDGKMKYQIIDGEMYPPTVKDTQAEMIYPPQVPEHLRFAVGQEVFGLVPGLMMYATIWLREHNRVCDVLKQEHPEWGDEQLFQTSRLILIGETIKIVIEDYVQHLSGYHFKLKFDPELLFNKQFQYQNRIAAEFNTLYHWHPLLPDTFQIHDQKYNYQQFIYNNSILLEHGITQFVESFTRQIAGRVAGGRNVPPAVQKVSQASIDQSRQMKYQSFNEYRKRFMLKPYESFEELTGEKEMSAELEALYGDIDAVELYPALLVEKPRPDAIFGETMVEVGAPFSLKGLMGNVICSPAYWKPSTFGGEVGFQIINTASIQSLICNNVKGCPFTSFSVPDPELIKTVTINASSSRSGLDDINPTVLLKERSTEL
Method: as §2, §3, §4, §5, §6

thrombogenesis [6] = test: Thrombus model induced by iron chloride; format: in vivo
[7] = Solubility in water, JP1 solution and JP2 solution; format: physicochemical
thrombogenesis [8] = test: Model of thrombosis induced by high shear stress; format: in vivo
[9] = Safety (general statement)
[10] = Stability under wet heat, dry heat and beam irradiation; format: physicochemical

Compound | inhibition of the platelet aggregation induced by collagen [2] | ex vivo inhibition of the platelet aggregation by the collagen [3] | Crystal form (change) ([4]; 0% RH) | Weight change (%) ([4]; 0% RH) | Crystal form (change) ([4]; 52% RH) | Weight change (%) ([4]; 52% RH) | Crystal form (change) ([4]; 93% RH) | Weight change (%) ([4]; 93% RH) | IC50 (COX-1) | IC50 for COX-1 relative to IC50 of platelet aggregation suppression (COX-1) | IC50 (COX-2) | IC50 for COX-2 relative to IC50 of platelet aggregation suppression (COX-2) | solubility in water, JP1 solution and JP2 solution [7] | also measured
COc1ccc(-n2nc(C(=O)N3CCN(C)CC3)cc2-c2ccccn2)nn1 [Compound (1a), [1-(6-methoxypyridazine-3-yl)-5-(pyridine-2-yl)-1H-pyrazole 3-yl](4-methylpiperazine-1-yl)methanone] | remarkable inhibition | strong ex vivo inhibition | No^1) | −0.41% | No | 0.41% | Yes | 7.99% | 97 µM | 100 fold | > 50 µM | 100 fold |  | IC50 [1]: 0.13 µM; oral absorbability [3]: excellent oral absorption; IC50 [5]: 1.1 to 1.3 µM
COc1ccc(-n2nc(C(=O)N3CCN(C)CC3)cc2-c2ccccn2)nn1.Cl [Compound (1b), [1-(6-Methoxypyridazine-3-yl)-5-(pyridine-2-yl)-1H-pyrazole-3-yl] (4-methylpiperazine-1-yl)methanone Monohydrochloride] | remarkable inhibition | strong ex vivo inhibition | No | 0.20% | No | 0.58% | Yes | 11.54% | > 100 µM | 100 fold | > 100 µM | 100 fold | good solubility | suppression of thrombogenesis (thrombogenesis [6]): remarkable suppression; platelet aggregation induced by collagen, ex vivo ([3]; guinea pig, 10 mg/kg oral, 1 hour after administration, collagen 0.8 μg to 2.5 μg): remarkably suppressed; oral absorbability ([3]; Monohydrochloride): excellent oral absorption; also recorded: sufficiently absorbed; also recorded: favorable oral absorbability; inhibition of the thrombogenesis (thrombogenesis [8]): remarkable inhibition; safety [9]: no safety problems; IC50 ([5]; Homo sapiens, Platelet): 0.86 µM
COc1ccc(-n2nc(C(=O)N3CCN(C)CC3)cc2-c2ccccn2)nn1 [Compound (1c), [1-(6-methoxypyridazine-3-yl)-5-(pyridine-2-yl)-1H-pyrazole-3-yl] (4-methylpiperazine-1-yl)methanone mono-1-tartrate] | remarkable inhibition |  | No | −0.20% | No | 0.00% | No | 0.19% |  |  |  |  | highly soluble | stability under wet heat, dry heat, and beam irradiation [10]: extremely stable
Citrate |  |  | No | 0.00% | No | 0.00% | Yes | 2.45% |  |  |  |  |  | 
Fumarate |  |  | Yes^2) | −5.65% | No | 1.60% | No | 0.59% |  |  |  |  |  | 
Maleate |  |  | No | 0.00% | No | 0.40% | No | 0.39% |  |  |  |  |  | 
